Source: publication PMC7256013, “Preclinical evaluation of cationic DOTA-triarginine-lipid conjugates for theranostic liquid brachytherapy” (Nanotheranostics, 2020)
Residues, ends and D or L forms follow the SMILES beside them. *: point of attachment. DOTA = O=C(O)CN1CCN(CC(=O)O)CCN(CC(=O)*)CCN(CC(=O)O)CC1; Stearoyl = CCCCCCCCCCCCCCCCCC(=O)*; Palmitoyl = CCCCCCCCCCCCCCCC(=O)*

Key:
[1] = Tumor retention and biodistribution by PET/CT after intratumoral injection; conditions: mean ± SEM; for Absolute retention of radioactivity in tumors: PET; for tumor retention: CT26 tumor, PET/CT
Procedure: CT26 wildtype cells (murine colon carcinoma, ATCC, Virginia, US) were cultured RPMI (Roswell Park Memorial Institute) medium supplemented with 10 % heat-inactivated Fetal Calf Serum (FCS) and 1 % Penicillin-Streptomycin (Invitrogen, Carlsbad, CA., US) retained in 5 % CO2 incubator at 37 °C. Immunocompetent female Balb/C mice (Charles River, Wilmington, MA., USA) were inoculated with tumor cells after one week of adaptation. All 20 mice included were inoculated subcutaneously with 3 x 10^5 CT26 wildtype cells in 100 µL medium on the right flank and hereafter monitored for weight and tumor size continuously for study purposes and to monitor the health of the mice. Tumor sizes were calculated from the formula of 0.52 x lenght^2 x width, as measured by external caliper. Animals were included in the study when tumors were approximately 400 mm^3.
(§2) Mice were injected intratumorally with ^64Cu-compounds in concentrations of 40 MBq/mL. During the scan procedures, mice were anaesthetized using 3-4 % sevoflurane (Abbott Scandinavia AB, Sweden) mixed with 35% O2 and 65% medical grade air and placed on heating pads. Two mice were positioned side-by-side, separated by a 6 mm polystyrene block for PET/CT imaging using Inveon® small animal PET/CT system with CT based PET image attenuation (Siemens Medical Systems, Malvern, PA, USA). The protocol included a 12-minute PET scan, followed by a CT scan. Mice were fixed on a bed inside the scanner with the syringe placed and the needle fixed centrally in the tumor and ready for injection. Upon initiation of the first scan, intratumoral injections were done manually over 30 seconds, to investigate the initial dynamics of the tracer diffusion. Following this, two further scans were included; at six hours (5 minutes scan time) and 24 hours (12 minutes scan time) after injection. Reconstruction of the PET scans were performed using maximum a posteriori (MAP) reconstruction algorithm (voxel size: 0.815 x 0.815 x 0.796 mm; resolution (FWHM) 1.2 mm). The injection scan was reconstructed in 4 x 30 second and 10 x 60 second time frames to observe the dynamics of tracer diffusion. The two last time points were reconstructed in a single time frame.
(§3) Image analysis was performed using commercially available Inveon software (Siemens Medical Systems, Malvern, PA, USA). Regions of interest (ROIs) were manually drawn based on the co-registered PET/CT images. The following ROIs were constructed; tumors (complete volume delineated), liver, spleen, kidney, bladder, and blood. Blood activity was estimated from a constructed ROI covering the left ventricular lumen of the heart. ROIs in the left ventricle and abdominal aorta were subsequently segmented to only include the voxels displaying above 80% of maximum activity with the original ROI. From the obtained uptake values all data was calculated into %ID/g for each organ and as %ID in tumors by adjusting for CT based tumor volume. Furthermore, voxel values from tumor ROIs were used to generate histograms for substance diffusion over time in the tumor region.

[2] = Intratumoral distribution of radioactivity, voxel frequency distribution from PET
Procedure: as §2, §3
Note that the first point in each plot represents the percentage of voxels with radioactivity concentrations lower than 1.6 %ID/g. These voxels are considered empty, meaning that the corresponding tumor region is non-radioactive.

[3] = Ex vivo well counting of tumor and organs; conditions: ex vivo after the 24-hour scan, mean ± SEM
Procedure: After the completion of PET/CT imaging, mice were sacrificed and tumor, spleen, and liver tissue were collected and well counted (Wizard, Perkin Elmer, US). Tissue radioactivity was recorded and corrected for isotope decay and well counter efficiency. Final results are presented in %ID/organ calculated from activity and the tissue weight.

[4] = Critical micelle concentration by surface tension measurement (Du Noüy); type: physicochemical; conditions: 0.49-250 µM
Procedure: An Ez-pi+ surface tensiometer, with dyneprobe (diameter: 0.51 mm) and polypropylene sample cuvettes were purchased from Kibron to measure the surface tension.
(§1) D3R-C16 or D3R-C18 was dispersed in ISO-HEPES-NaCl or ISO-HEPES-Sucrose for a final concentration of 250 μM as stock solutions. Sample series were prepared by diluting the stock solutions with ISO-HEPES-NaCl or ISO-HEPES-Sucrose into concentrations of 125, 62.5, 31.25, 15.63, 7.81, 3.91, 1.95, 0.98 and 0.49 μM. The surface tension of the sample was measured by the Du Noüy method with a platinum probe. For each sample, the measurements were repeated until three consecutive measurements varied with less than 1 mN/m between them. Based on the critical micelle concentration of D3R-C18, a micellar dispersion of D3R-C18 in ISO-HEPES-Sucrose (2.0 mM) was prepared. The zeta potential of the D3R-C18 micelles was measured on a Zetasizer (Malvern).

[5] = Partitioning of radiolabeled surfactant into liposomes (SEC, PD-10); type: physicochemical; conditions: 37 °C, 60 min, for D3R-C18 at lipid 0.36 and 0.72 mM
Procedure: Three different liposomes types were prepared: (1) POPC only, (2) POPC-POPG (9:1), (3) commercially available stealth lipid mixture (see above). POPC or the POPC-POPG mixture was freeze- dried from tert-butanol:water (9:1). The resulting lyophilizate or the stealth lipid mixture (187.5 mg) was then hydrated with ISO-HEPES-NaCl (5.0 mL) at 65 ℃ for 60 minutes by magnetic stirring. This was followed by sizing through a mini-extruder with a cut-off size of 100 nm. Size, PDI and zeta potential of all three preparations were measured (Table 1). The liposomes were diluted to lipid concentrations of 0.4, 1.0 and 4.0 mM for partitioning studies.
A dispersion of ^64Cu-D3R-C16 (200 μM) in ISO-HEPES-NaCl (100 µL) was added to POPC liposomes (900 µL, 0.4 mM). The resulting mixture was magnetically stirred at 37 ℃. Mixtures were separated by size-exclusion chromatography (SEC) at 10, 30, 60, 120 and 180 minutes after addition. An aliquot (100 µL) was applied to a PD-10 cartridge and eluted with ISO-HEPES-NaCl. […] The radioactivities of the two collected fractions and the column were measured by dose calibrator. […] The partitioning of the radiolabeled constructs into liposomes was calculated as the ratio of the radioactivity in the liposomal fraction to the total radioactivity of the liposomal fraction plus the column. […] The mixtures were analyzed by SEC by applying 200 µL to a PD-10 cartridge (see above). […]

[6] = Micelle size (DLS) and zeta potential; type: physicochemical; conditions: for PDI of micelles / average size of micelles (Z-average): 2.0 mM in ISO-HEPES, DLS; for average size of micelles (Z-average): broad distribution
Procedure: Liposomes were prepared using a mini-extruder (Avanti Polar Lipids) or a LIPEX Thermobarrel Pressure Extruder (10 mL, Northern Lipids). The hydrodynamic size and zeta potential of liposomes were measured by dynamic light scattering (DLS) on a Zetasizer (Malvern). Intensity weighted lognormal mean sizes are reported, unless otherwise noted. Sizes were measured in ISO-HEPES-NaCl and zeta potentials were measured in ISO-HEPES-Sucrose. Lipid concentrations were measured by ICP-MS (Thermo Scientifc, iCAP Q) by quantifying the phosphorous content of liposome samples against an internal standard of gallium (10 ppb). Sephadex G-25 PD-10 columns (8.3 mL bed volume) were purchased from GE Healthcare.
as §1

[7] = system: CT26 cells; experiment: Cytotoxicity, MTS assay; type: cell-based, murine; conditions: 4000 cells/well, 24 h incubation with compound, then 48 h without, absorbance 490 nm
Procedure: CT26 (murine colon carcinoma) was purchased from ATTC (Rockville) and cultured in DMEM medium supplemented with 10% fetal calf serum and pen-strep (Invitrogen Inc) at 37 °C and 5% CO2 in a humidified atmosphere. A commercial MTS assay was used to assess cytotoxicity. (Promega, CellTiter 96® AQueous One Solution Cell Proliferation Assay).
Cells were plated onto 96 well plates at a density of 4000 cells/well the day before the start of experiment. The original culture medium was replaced by medium containing increasing amounts of the indicated agents. After 24 h incubation with D3R-C16 or D3R-C18, the medium was removed and the cells were further incubated for another 48 hours. To measure metabolically active cells, 100 µL of MTS solution was added to the wells and incubated until sufficient amount of color was developed and within the linear range. The absorbance was measured at 490 nm using a microplate reader (Sunrise, Tecan).

[8] = 12 minutes post intratumoral injection, 40 MBq/mL
[9] = 5 minutes after the start of the PET scan
[10] = in ISO-HEPES-NaCl (10 mM HEPES, 150 mM NaCl, pH 7.4)
[11] = in ISO-HEPES-Sucrose (10 mM HEPES, 300 mM sucrose, pH 7.4)

For `O=C([O-])CN1CCN(CC(=O)[O-])CCN(CC(=O)O)CCN(CC(=O)O)CC1.[64Cu+2]` [64Cu-DOTA], the “Absolute retention of radioactivity in tumors” value (“Absolute retention” for short) ([1]; 0.25 min) was 78 ± 37 %ID/g, the “Absolute retention” value ([1]; 0.75 min) was 130 ± 13 %ID/g and the “Absolute retention” value ([1]; 1.25 min) was 127 ± 14 %ID/g. The “Absolute retention” value ([1]; 1.75 min) was 123 ± 14 %ID/g, the “Absolute retention” value ([1]; 2.5 min) was 120 ± 14 %ID/g and the “Absolute retention” value ([1]; 3.5 min) was 115 ± 14 %ID/g. For the same molecule, the “Absolute retention” value ([1]; 4.5 min) was 111 ± 14 %ID/g, the “Absolute retention” value ([1]; 5.5 min) was 108 ± 14 %ID/g and the “Absolute retention” value ([1]; 6.5 min) was 105 ± 14 %ID/g. The “Absolute retention” value ([1]; 7.5 min) was 102 ±14 %ID/g, the “Absolute retention” value ([1]; 8.5 min) was 100 ± 14 %ID/g and the “Absolute retention” value ([1]; 9.5 min) was 97 ± 13 %ID/g. For the same molecule, the “Absolute retention” value ([1]; 10.5 min) was 94 ± 13 %ID/g, the “Absolute retention” value ([1]; 11.5 min) was 92 ± 12 %ID/g and the tumor retention [1, 8] was 52 ± 4 %ID/tumor. For the same molecule, the “Absolute retention” value ([1]; 6 h) was 4 ± 1 %ID/g, the tumor retention ([1]; 6 hours post intratumoral injection) was 2.4 ± 0.7 %ID/tumor and the “Absolute retention” value ([1]; 24 h) was 2 ± 0.8 %ID/g. The tumor retention ([1]; 24 hours post intratumoral injection) was 1.4 ± 0.4 %ID/tumor, the “non-radioactive voxels in tumor (<1.6 %ID/g)” value [2, 9] was “less than 10%” and the “non-radioactive voxels in tumor (<1.6 %ID/g)” value ([2]; 6 h) was “More than 40%”. The “Accumulation of radioactivity in liver” value [3] was 1 ± 0.2 ID%/g, the “Accumulation of radioactivity in spleen” value [3] was 0.3 ± 0.05 ID%/g and the “Accumulation of radioactivity in tumor” value [3] was 1 ± 0.3 ID%/g.
With `CCCCCCCCCCCCCCCC(=O)N[C@@H](CCCNC(=N)N)C(=O)N[C@@H](CCCNC(=N)N)C(=O)N[C@@H](CCCNC(=N)N)C(=O)N[C@@H](CCCCNC(=O)CN1CCN(CC(=O)O)CCN(CC(=O)O)CCN(CC(=O)O)CC1)C(N)=O` [D3R-C16] (Palmitoyl-RRRK(DOTA)-NH2) the CMC [4, 10] was “about 40 µM”, the CMC [4, 11] was “above 100 µM” and the “stealth liposome partitioning, 177Lu label compared with 64Cu label” value [5] was “no significant difference”. The PDI of micelles [6] was 0.3, the “average size of micelles (Z-average)” value [6] was 10 nm and the “median lethal concentration (LC50)” value [7] was “above 100 µM”.
In the case of `CCCCCCCCCCCCCCCCCC(=O)N[C@@H](CCCNC(=N)N)C(=O)N[C@@H](CCCNC(=N)N)C(=O)N[C@@H](CCCNC(=N)N)C(=O)N[C@@H](CCCCNC(=O)CN1CCN(CC(=O)O)CCN(CC(=O)O)CCN(CC(=O)O)CC1)C(N)=O` [D3R-C18] (Stearoyl-RRRK(DOTA)-NH2), the CMC [4, 10] is reported as “about 10 µM”, the CMC [4, 11] is reported as “above 100 µM” and the PDI of micelles [6] is reported as 0.3. The “average size of micelles (Z-average)” value [6] was 10 nm, the “zeta potential of micelles” value ([6]; 2.0 mM micellar dispersion in ISO-HEPES-Sucrose, Zetasizer) was 20.7 ± 0.5 mV and the “median lethal concentration (LC50)” value [7] was “above 100 µM”.
In the case of `[Cl][64Cu][Cl]` [Free 64CuCl2], the “Absolute retention” value ([1]; 0.25 min) is reported as 97 ± 19 %ID/g, the “Absolute retention” value ([1]; 0.75 min) is reported as 167 ± 50 %ID/g and the “Absolute retention” value ([1]; 1.25 min) is reported as 164 ± 53 %ID/g. The “Absolute retention” value ([1]; 1.75 min) was 162 ± 54 %ID/g, the “Absolute retention” value ([1]; 2.5 min) was 159 ± 53 %ID/g and the “Absolute retention” value ([1]; 3.5 min) was 156 ± 54 %ID/g. The “Absolute retention” value ([1]; 4.5 min) was 154 ± 53 %ID/g, the “Absolute retention” value ([1]; 5.5 min) was 152 ± 53 %ID/g and the “Absolute retention” value ([1]; 6.5 min) was 150 ± 53 %ID/g. For the same molecule, the “Absolute retention” value ([1]; 7.5 min) was 148 ± 52 %ID/g, the “Absolute retention” value ([1]; 8.5 min) was 146 ± 52 %ID/g and the “Absolute retention” value ([1]; 9.5 min) was 145 ± 53 %ID/g. For the same molecule, the “Absolute retention” value ([1]; 10.5 min) was 143 ± 52 %ID/g, the “Absolute retention” value ([1]; 11.5 min) was 142 ± 51 %ID/g and the tumor retention [1, 8] was 45 ± 5 %ID/tumor. For the same molecule, the “Absolute retention” value ([1]; 6 h) was 18 ± 3 %ID/g, the “Absolute retention” value ([1]; 24 h) was 10 ± 1 %ID/g and the “non-radioactive voxels in tumor (<1.6 %ID/g)” value [2, 9] was “less than 10%”. The “Accumulation of radioactivity in liver” value [3] was 14 ± 1 ID%/g, the “Accumulation of radioactivity in spleen” value [3] was 2 ± 0.6 ID%/g and the “Accumulation of radioactivity in tumor” value [3] was 11 ± 3 ID%/g.
